Experimental data: article PMC12207533, “Structure-guided design of a methyltransferase-like 3 (METTL3) proteolysis targeting chimera (PROTAC) incorporating an indole–nicotinamide chemotype” (RSC Medicinal Chemistry, 2025)

Molecular target: T1, METTL3 (Homo sapiens, UniProt Q86U44)
T1 construct: endogenous in cells; host or cells: MOLM-13
Experiment: Immunoblotting of METTL3 protein levels in MOLM-13 cells
Type: cell-based
Conditions: MOLM-13, 0.1-10 μM, 16 h
Method: MOLM-13 were seeded in 12-well cell culture plates at a density of 1 × 10^6 cells per mL and treated with DMSO (final: 0.1%) or different concentrations of PROTAC degraders in DMSO at the indicated times. Treatments were conducted in biological triplicate with varying passages of MOLM-13 cells. The cells were harvested by centrifugation at 500g for 5 min and washed with PBS. The cells were lysed with RIPA lysis buffer with the addition of protease inhibitor (1× cOMPLETE), and insoluble cellular parts were separated by centrifugation (12 000g for 10 min), subsequently, the supernatant was boiled with 1× Laemmli sample buffer (Carl Roth) for 5 min at 95 °C. Proteins were separated by SDS–PAGE on 4–20% Criterion™ TGX™ Precast Protein Gels (Bio-Rad) and transferred to Amersham™ Protean® 0.45 μm nitrocellulose membrane (Cytiva) using semi-dry transfer (25 V, 1 A, Towbin buffer). The membrane was blocked with 5% milk (Carl Roth) in TBST buffer and incubated with the following primary antibodies: Anti-METTL3 (1 : 1000, Abcam, ab195352), anti-METTL14 (1 : 1000, Abcam, ab220030), anti-Bcl2 (1 : 1000, Cell Signaling Technology [CST], EPR16891), anti-Mcl-1 (1 : 1000, CST, 5453 T), anti-Bcl-XL (1 : 1000, CST, 2764 T), anti-vinculin (1 : 1000, CST, 13901) or anti-GAPDH (1 : 5000, CST, D17C4) overnight at 4 °C. Subsequently, the membrane was incubated for 1 h at RT with secondary antibodies: anti-rabbit (1 : 2000, VWR, NA934) or anti-mouse (1 : 2000, VWR, 102646-160). The protein bands were detected via chemiluminescence using Pierce™ ECL western blotting substrate and a Fusion FX imaging system (Vilber). The ImageLab software (Bio-Rad) was used for band quantification.

T1 sequence (Q86U44 whole entry): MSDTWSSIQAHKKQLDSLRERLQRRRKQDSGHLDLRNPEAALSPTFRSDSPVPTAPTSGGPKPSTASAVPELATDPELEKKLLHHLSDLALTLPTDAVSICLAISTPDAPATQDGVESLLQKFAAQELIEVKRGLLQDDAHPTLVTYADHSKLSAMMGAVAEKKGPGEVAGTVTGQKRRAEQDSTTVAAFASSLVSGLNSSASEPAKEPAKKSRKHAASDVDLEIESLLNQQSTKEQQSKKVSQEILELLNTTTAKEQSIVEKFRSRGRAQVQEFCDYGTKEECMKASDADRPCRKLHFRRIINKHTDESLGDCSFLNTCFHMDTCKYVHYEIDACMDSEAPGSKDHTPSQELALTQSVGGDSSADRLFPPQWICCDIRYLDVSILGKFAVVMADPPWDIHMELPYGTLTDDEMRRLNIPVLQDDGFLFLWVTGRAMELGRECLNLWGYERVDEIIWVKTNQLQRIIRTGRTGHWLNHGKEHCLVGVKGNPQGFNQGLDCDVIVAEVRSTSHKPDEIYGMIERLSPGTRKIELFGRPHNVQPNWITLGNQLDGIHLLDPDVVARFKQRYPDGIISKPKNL

Compound	METTL3 degradation (Western blot screening)
COc1cc2c(cc1Cc1cccc(Cl)c1F)c(=O)c(C(=O)O)cn2[C@H](CO)C(C)C [Elvitegravir, reference compound]	do not func?on as METTL3 degraders
CC1(C)CCN(Cc2ccc3nc(Cn4cc(-c5cc(Br)cc6[nH]ncc56)nn4)cn3c2)CC1 [STM3006, reference compound]	do not func?on as METTL3 degraders
